Test results: ChEMBL document CHEMBL5550138, “Histidine-Covalent Stapled Alpha-Helical Peptides Targeting hMcl-1” (J Med Chem, 2024)
Active and inactive are the calls of the source. The calls are words filed in the database; no cut-off is given here. Positions of bridges follow the written chain, without caps; N, C: chain ends. Non-standard residues stand in square brackets, D forms with d. Residues, ends and D or L forms follow the SMILES beside them. *: point of attachment. Benzoyl(2-OMe,5-SO2F) = COc1ccc(S(=O)(=O)F)cc1C(=O)*; Ser(allyl) = C=CCOC[C@H](N)C(=O)O; S5 = C=CCCC[C@](C)(N)C(=O)O; Dap = NC[C@H](N)C(=O)O

Assays:
[1] = target: T1, Bcl-2-related protein A1 (Homo sapiens) (UniProt Q16548); assay: Covalent binding affinity to N-terminal His6-tagged human Bfl-1 (1 to 149 residues) assessed as band shift at 100 uM incubated for 16 hrs by SDS PAGE analysis
T1 sequence (whole entry): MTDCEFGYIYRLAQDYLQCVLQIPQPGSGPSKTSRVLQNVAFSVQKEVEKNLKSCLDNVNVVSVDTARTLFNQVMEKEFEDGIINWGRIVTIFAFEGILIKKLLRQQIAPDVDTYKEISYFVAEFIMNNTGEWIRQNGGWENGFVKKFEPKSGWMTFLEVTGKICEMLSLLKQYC

Homo sapiens [2] = species on record: Homo sapiens; assay: (§1) Covalent binding affinity to N-terminal His6-tagged human Mcl-1 ligand binding domain (172 to 323 residues) Lys234Ala mutant expressed in Escherichia coli BL21(DE3) gold pLysS cells assessed as stable covalent adduct formation by measuring band shift at 100 uM incubated for 16 hrs by SDS PAGE analysis
[3] = target: T2, Induced myeloid leukemia cell differentiation protein Mcl-1 (Homo sapiens, UniProt Q07820); assay: Displacement of biotinylated BH3 peptide from N-terminal His6-tagged human Mcl-1 ligand binding domain (172 to 323 residues) expressed in Escherichia coli BL21(DE3) gold pLysS cells preincubated with protein for 2 hrs followed by incubation with BH3 peptide for 2 hrs by DELFIA assay
Homo sapiens [4] = species on record: Homo sapiens; assay: as §1, with “His252Ala” for “Lys234Ala”
[5] = target: T2, Induced myeloid leukemia cell differentiation protein Mcl-1; assay: Covalent binding affinity to N-terminal His6-tagged human Mcl-1 ligand binding domain (172 to 323 residues) expressed in Escherichia coli BL21(DE3) gold pLysS cells assessed as stable covalent adduct formation by measuring band shift at 100 uM incubated for 16 hrs by SDS PAGE analysis
A549 = assay: Induction of cell lysis in NucLight Red-labeled human A549 cells assessed as cell bursting at 100 uM measured after 20 mins by IncuCyte S3 live cell analysis based fluorescence microscopy; assay type: toxicity; details: a549, 20 min

T2 sequence (Q07820 whole entry, the tested form may be a part): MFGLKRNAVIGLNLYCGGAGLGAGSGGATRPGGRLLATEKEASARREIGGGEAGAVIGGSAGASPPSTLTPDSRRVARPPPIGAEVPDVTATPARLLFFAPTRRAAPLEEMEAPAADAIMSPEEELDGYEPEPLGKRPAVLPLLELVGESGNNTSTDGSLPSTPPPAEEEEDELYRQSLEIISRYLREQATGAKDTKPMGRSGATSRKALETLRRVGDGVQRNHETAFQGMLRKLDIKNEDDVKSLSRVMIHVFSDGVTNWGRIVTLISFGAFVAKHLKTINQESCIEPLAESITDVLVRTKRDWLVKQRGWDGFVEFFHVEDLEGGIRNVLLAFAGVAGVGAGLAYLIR

| Compound | Activity [1] | Activity (Homo sapiens [2]) | IC50 [3] | Activity (Homo sapiens [4]) | Activity [5] | Activity (A549) |
| --- | --- | --- | --- | --- | --- | --- |
| CC[C@H](C)[C@H](NC(=O)[C@H](C)NC(=O)[C@H](CCCNC(=N)N)NC(=O)[C@H](CC(C)C)NC(=O)[C@H](CCC(N)=O)NC(=O)[C@]1(C)CCC/C=C/CCC[C@](C)(NC(C)=O)C(=O)N[C@@H](CNC(=O)c2cc(S(=O)(=O)F)ccc2OC)C(=O)N[C@@H]([C@@H](C)CC)C(=O)N[C@@H](C)C(=O)N1)C(=O)NCC(=O)N[C@@H](CC(=O)O)C(=O)N[C@@H](CCCNC(=N)N)C(=O)N[C@@H](Cc1ccccc1)C(N)=O (Ac-[S5][Dap](Benzoyl(2-OMe,5-SO2F))IA[S5]QLRAIGDRF-NH2; staple (E) 1-5) | inactive | Active | 35 nM | Active | Active |  |
| CC[C@H](C)[C@H](NC(=O)[C@H](CCCNC(=N)N)NC(=O)[C@H](CCCNC(=N)N)NC(=O)[C@H](CC(C)C)NC(=O)[C@H](CCC(N)=O)NC(=O)[C@]1(C)CCC/C=C/CCC[C@](C)(NC(C)=O)C(=O)N[C@@H](CNC(=O)c2cc(S(=O)(=O)F)ccc2OC)C(=O)N[C@@H]([C@@H](C)CC)C(=O)N[C@@H](C)C(=O)N1)C(=O)NCC(=O)N[C@@H](CC(=O)O)C(=O)N[C@@H](CCCNC(=N)N)C(=O)N[C@@H](Cc1ccccc1)C(N)=O (Ac-[S5][Dap](Benzoyl(2-OMe,5-SO2F))IA[S5]QLRRIGDRF-NH2; staple (E) 1-5) | inactive | Active | 24 nM | Active | Active | Toxic |
| CC[C@H](C)[C@H](NC(=O)[C@H](CNC(=O)c1cc(S(=O)(=O)F)ccc1OC)NC(C)=O)C(=O)N[C@@H](C)C(=O)N[C@@]1(C)CCC/C=C\CCC[C@@](C)(C(=O)N[C@H](C(=O)NCC(=O)N[C@@H](CC(=O)O)C(=O)N[C@@H](C)C(=O)N[C@@H](Cc2ccccc2)C(N)=O)[C@@H](C)CC)NC(=O)[C@H](CCCNC(=N)N)NC(=O)[C@H](CC(C)C)NC(=O)[C@H](CCC(N)=O)NC1=O (Ac-[Dap](Benzoyl(2-OMe,5-SO2F))IA[S5]QLR[S5]IGDAF-NH2; staple (Z) 4-8) | inactive | Active | 12 nM | Active | Active |  |
| CC[C@H](C)[C@H](NC(=O)[C@H](CNC(=O)c1cc(S(=O)(=O)F)ccc1OC)NC(C)=O)C(=O)N[C@@H](C)C(=O)N[C@@]1(C)CCC/C=C\CCC[C@@](C)(C(=O)N[C@H](C(=O)NCC(=O)N[C@@H](CC(=O)O)C(=O)N[C@@H](CCCNC(=N)N)C(=O)N[C@@H](Cc2ccccc2)C(N)=O)[C@@H](C)CC)NC(=O)[C@H](CCCNC(=N)N)NC(=O)[C@H](CC(C)C)NC(=O)[C@H](CCC(N)=O)NC1=O (Ac-[Dap](Benzoyl(2-OMe,5-SO2F))IA[S5]QLR[S5]IGDRF-NH2; staple (Z) 4-8) | inactive | Active | 14 nM | Active | Active |  |
| CC[C@H](C)[C@H](NC(=O)[C@@H]1CCCCn2cc(nn2)CCC[C@H](NC(=O)[C@H](C)NC(=O)[C@@H](NC(=O)[C@H](CNC(=O)c2cc(S(=O)(=O)F)ccc2OC)NC(C)=O)[C@@H](C)CC)C(=O)N[C@@H](CCC(N)=O)C(=O)N[C@@H](CC(C)C)C(=O)N[C@@H](CCCNC(=N)N)C(=O)N1)C(=O)NCC(=O)N[C@@H](CC(=O)O)C(=O)N[C@@H](CCCNC(=N)N)C(=O)N[C@@H](Cc1ccccc1)C(N)=O | inactive | Active | 21 nM | Active | Active |  |
| CC[C@H](C)[C@H](NC(=O)[C@H](CNC(=O)c1cc(S(=O)(=O)F)ccc1OC)NC(C)=O)C(=O)N[C@@H](C)C(=O)N[C@H]1COC/C=C\CCC[C@@](C)(C(=O)N[C@H](C(=O)NCC(=O)N[C@@H](CC(=O)O)C(=O)N[C@@H](CCCNC(=N)N)C(=O)N[C@@H](Cc2ccccc2)C(N)=O)[C@@H](C)CC)NC(=O)[C@H](CCCNC(=N)N)NC(=O)[C@H](CC(C)C)NC(=O)[C@H](CCC(N)=O)NC1=O (Ac-[Dap](Benzoyl(2-OMe,5-SO2F))IA[Ser(allyl)]QLR[S5]IGDRF-NH2; staple (Z) 4-8) | inactive | Active | 6.6 nM | Active | Active |  |
| CC[C@H](C)[C@H](NC(=O)[C@H](C)NC(=O)[C@H](CCCNC(=N)N)NC(=O)[C@H](CC(C)C)NC(=O)[C@H](CCC(N)=O)NC(=O)[C@]1(C)CCC/C=C/CCC[C@](C)(NC(C)=O)C(=O)N[C@@H](CNC(=O)c2cc(S(=O)(=O)F)ccc2OC)C(=O)N[C@@H]([C@@H](C)CC)C(=O)N[C@@H](C)C(=O)N1)C(=O)NCC(=O)N[C@@H](CC(=O)O)C(=O)N[C@@H](C)C(=O)N[C@@H](Cc1ccccc1)C(N)=O (Ac-[S5][Dap](Benzoyl(2-OMe,5-SO2F))IA[S5]QLRAIGDAF-NH2; staple (E) 1-5) | inactive | Active | 17 nM | Active | Active |  |
| CC[C@H](C)[C@H](NC(=O)[C@H](CCCNC(=N)N)NC(=O)[C@]1(C)CCC/C=C\CCC[C@](C)(NC(=O)[C@@H](NC(=O)[C@@H](CNC(=O)c2cc(S(=O)(=O)F)ccc2OC)NC(C)=O)[C@@H](C)CC)C(=O)N[C@H](CCC(=O)O)C(=O)N[C@@H](CCC(N)=O)C(=O)N[C@@H](CC(C)C)C(=O)N1)C(=O)NCC(=O)N[C@@H](CC(=O)O)C(=O)N[C@@H](CCCNC(=N)N)C(=O)N[C@@H](Cc1ccccc1)C(N)=O | inactive | Active | 174 nM | Active | Active |  |
| CC[C@H](C)[C@H](NC(=O)[C@H](CC(=O)O)NC(=O)[C@H](CCCNC(=N)N)NC(=O)[C@H](CC(C)C)NC(=O)[C@H](CCC(N)=O)NC(=O)[C@]1(C)CCC/C=C/CCC[C@](C)(NC(C)=O)C(=O)N[C@@H](CNC(=O)c2cc(S(=O)(=O)F)ccc2OC)C(=O)N[C@@H]([C@@H](C)CC)C(=O)N[C@@H](C)C(=O)N1)C(=O)NCC(=O)N[C@@H](CC(=O)O)C(=O)N[C@@H](CCCNC(=N)N)C(=O)N[C@@H](Cc1ccccc1)C(N)=O (Ac-[S5][Dap](Benzoyl(2-OMe,5-SO2F))IA[S5]QLRDIGDRF-NH2; staple (E) 1-5) | inactive | Active | 30 nM | Active | Active |  |
| CC[C@H](C)[C@H](NC(=O)[C@H](CCCNC(=N)N)NC(=O)[C@H](CCCNC(=N)N)NC(=O)[C@H](CC(C)C)NC(=O)[C@H](CCC(N)=O)NC(=O)[C@H](CCC(=O)O)NC(=O)[C@H](C)NC(=O)[C@@H](NC(=O)[C@H](CNC(=O)c1cc(S(=O)(=O)F)ccc1OC)NC(C)=O)[C@@H](C)CC)C(=O)NCC(=O)N[C@@H](CC(=O)O)C(=O)N[C@@H](CCCNC(=N)N)C(=O)N[C@@H](Cc1ccccc1)C(N)=O (Ac-[Dap](Benzoyl(2-OMe,5-SO2F))IAEQLRRIGDRF-NH2) |  |  | 18 nM |  |  |  |
